Where a chain is given by its changes, count along the chain named. Like-named read-outs stand apart in the source and are kept apart here.
Legend:
Test in all cases: KINOMEscan: ABL1
ABL1 [1] = target: ABL1 (Homo sapiens, UniProt P00519); format: binding; conditions: read-out: Percent Control; for remaining binding at 0.1 µM: 100 nM; for remaining binding at 1 µM: 1000 nM
Procedure: (§1) The structure and synthesis of VIP152 were recently described by Lücking et al.. (Fig. 1A); however, the selectivity of the molecule in cellular systems has yet to be explored. […] We also performed this experiment at 1000 nM, where CDK9 was inhibited at 99%. […] We found a strong concordance between our data and those of Lücking when comparing the most inhibited kinases. Potential off-target effects of VIP152 were next tested in vitro at a concentration of 10 µM for off-target activity against a broad range of receptors, transporters, ion channels, and enzymes (n = 138) using the Eurofins Diversity Panel.
(§2) Kinomescan Kinase Profiling Assay
(§3) Kinomescan Assay was performed at DiscoverRX and described in Fabian, et al. 2005, Nat.
(§4) Biotechnol. In brief, kinases were produced and subsequently tagged with DNA for qPCR detection.
(§5) Streptavidin-coated magnetic beads were bound to biotinylated kinase ligands to serve as a solid support.
(§6) VIP152 was dissolved in DMSO and tested across a 10 serial threefold dilution set and compared to a test compound and a DMSO control. Kinases which were inhibited by VIP152 would not be bound to the solid-support resulting in decreased substrate for the qPCR reaction. Kinome map was produced via TreeSpot Analysis from DiscoverRX. […]

ABL1 [2] = target: ABL1 (Homo sapiens, UniProt P00519, E255K); format: binding; conditions: ABL1(E255K)-phosphorylated, read-out: Percent Control
Procedure: as §1, §2, §3, §4, §5, §6

ABL1 [3] = target: T1, ABL1 (Homo sapiens, UniProt P00519, F317I); format: binding; conditions: read-out: Percent Control; for remaining binding at 0.1 µM: 100 nM; for remaining binding at 1 µM: 1000 nM
T1 sequence (P00519 229-512 F317I): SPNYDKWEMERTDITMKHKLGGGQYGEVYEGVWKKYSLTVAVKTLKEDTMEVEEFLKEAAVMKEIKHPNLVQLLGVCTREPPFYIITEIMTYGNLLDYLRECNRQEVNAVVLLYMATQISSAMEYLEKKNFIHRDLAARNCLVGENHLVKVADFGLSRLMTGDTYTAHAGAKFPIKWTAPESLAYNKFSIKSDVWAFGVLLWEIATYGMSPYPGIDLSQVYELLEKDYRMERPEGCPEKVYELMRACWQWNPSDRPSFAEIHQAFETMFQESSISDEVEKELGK
Procedure: as §1, §2, §3, §4, §5, §6

ABL1 [4] = target: T2, ABL1 (Homo sapiens, UniProt P00519, F317L); format: binding; conditions: read-out: Percent Control; for remaining binding at 0.1 µM: 100 nM; for remaining binding at 1 µM: 1000 nM
T2 sequence (P00519 229-512 F317L): T1 sequence (P00519 229-512 F317I) with I89L
Procedure: as §1, §2, §3, §4, §5, §6

ABL1 [5] = target: T3, ABL1 (Homo sapiens, UniProt P00519, H396P); format: binding; conditions: read-out: Percent Control; for remaining binding at 0.1 µM: 100 nM; for remaining binding at 1 µM: 1000 nM
T3 sequence (P00519 229-512 H396P): T1 sequence (P00519 229-512 F317I) with I89F, H168P
Procedure: as §1, §2, §3, §4, §5, §6

ABL1 [6] = target: T4, ABL1 (Homo sapiens, UniProt P00519, Q252H); format: binding; conditions: read-out: Percent Control; for remaining binding at 0.1 µM: 100 nM; for remaining binding at 1 µM: 1000 nM
T4 sequence (P00519 229-512 Q252H): T1 sequence (P00519 229-512 F317I) with Q24H, I89F
Procedure: as §1, §2, §3, §4, §5, §6

ABL1 [7] = target: T5, ABL1 (Homo sapiens, UniProt P00519, T315I); format: binding; conditions: read-out: Percent Control; for remaining binding at 0.1 µM: 100 nM; for remaining binding at 1 µM: 1000 nM
T5 sequence (P00519 229-512 T315I): T1 sequence (P00519 229-512 F317I) with T87I, I89F
Procedure: as §1, §2, §3, §4, §5, §6

ABL1 [8] = target: ABL1 (Homo sapiens, UniProt P00519, Y253F); format: binding; conditions: ABL1(Y253F)-phosphorylated, read-out: Percent Control
Procedure: as §1, §2, §3, §4, §5, §6

ABL1 [9] = format: binding, human; conditions: 1000 nM
Procedure: as §1, §2, §3, §4, §5, §6

Work on `COc1cc(F)ccc1-c1cc(Nc2cc(CS(C)(=N)=O)ccn2)ncc1F` (centres unmarked) [VIP152] yielded a remaining binding at 0.1 µM (ABL1 [1]; ABL1-nonphosphorylated) of 64%, a remaining binding at 1 µM (ABL1 [1]; ABL1-nonphosphorylated) of 21% and a remaining binding at 0.1 µM (ABL1 [1]; ABL1-phosphorylated) of 73%. It also gave a remaining binding at 1 µM (ABL1 [1]; ABL1-phosphorylated) of 54%, a remaining binding at 0.1 µM (ABL1 [2]; 100 nM) of 83% and a remaining binding at 1 µM (ABL1 [2]; 1000 nM) of 48%. For the same compound, the remaining binding at 0.1 µM (ABL1 [3]; ABL1(F317I)-nonphosphorylated) was 100%, the remaining binding at 1 µM (ABL1 [3]; ABL1(F317I)-nonphosphorylated) was 84% and the remaining binding at 0.1 µM (ABL1 [3]; ABL1(F317I)-phosphorylated) was 95%. It also gave a remaining binding at 1 µM (ABL1 [3]; ABL1(F317I)-phosphorylated) of 33%, a remaining binding at 0.1 µM (ABL1 [4]; ABL1(F317L)-nonphosphorylated) of 100% and a remaining binding at 1 µM (ABL1 [4]; ABL1(F317L)-nonphosphorylated) of 52%. It also gave a remaining binding at 0.1 µM (ABL1 [4]; ABL1(F317L)-phosphorylated) of 95%, a remaining binding at 1 µM (ABL1 [4]; ABL1(F317L)-phosphorylated) of 56% and a remaining binding at 0.1 µM (ABL1 [5]; ABL1(H396P)-nonphosphorylated) of 70%. The remaining binding at 1 µM (ABL1 [5]; ABL1(H396P)-nonphosphorylated) was 7.6%, the remaining binding at 0.1 µM (ABL1 [5]; ABL1(H396P)-phosphorylated) was 100% and the remaining binding at 1 µM (ABL1 [5]; ABL1(H396P)-phosphorylated) was 52%. The remaining binding at 0.1 µM (ABL1 [6]; ABL1(Q252H)-nonphosphorylated) was 72%, the remaining binding at 1 µM (ABL1 [6]; ABL1(Q252H)-nonphosphorylated) was 25% and the remaining binding at 0.1 µM (ABL1 [6]; ABL1(Q252H)-phosphorylated) was 100%. The remaining binding at 1 µM (ABL1 [6]; ABL1(Q252H)-phosphorylated) was 46%, the remaining binding at 0.1 µM (ABL1 [7]; ABL1(T315I)-nonphosphorylated) was 96% and the remaining binding at 1 µM (ABL1 [7]; ABL1(T315I)-nonphosphorylated) was 3.2%. For the same compound, the remaining binding at 0.1 µM (ABL1 [7]; ABL1(T315I)-phosphorylated) was 95%, the remaining binding at 1 µM (ABL1 [7]; ABL1(T315I)-phosphorylated) was 53% and the remaining binding at 0.1 µM (ABL1 [8]; 100 nM) was 100%. For the same compound, the remaining binding at 1 µM (ABL1 [8]; 1000 nM) was 45% and the “inhibition of ABL1” value (ABL1 [9]) was 96.8%.

Reference: article PMC9898036, “VIP152 is a selective CDK9 inhibitor with pre-clinical in vitro and in vivo efficacy in chronic lymphocytic leukemia” (Leukemia, 2022)
